Laboratory results as given in publication PMC12298007 (Pharmaceuticals, 2025).
Non-standard residues stand in square brackets, D forms with d. Residues, ends and D or L forms follow the SMILES beside them. *: point of attachment. X1 = O=C(O)CC[C@H](NC(=O)N[C@@H](CCCCNC(=O)CCCCCCC(=O)*)C(=O)O)C(=O)O; d2Nal = N[C@H](Cc1ccc2ccccc2c1)C(=O)O; Mercaptoacetyl = O=C(CS)*

Target: T1, human PSMA (CHO-K1-PSMA cells) (Homo sapiens, UniProt Q04609)
T1 construct: host or cells: CHO-K1 (lentiviral transduction, clone 5)
T1 sequence (Q04609 whole entry): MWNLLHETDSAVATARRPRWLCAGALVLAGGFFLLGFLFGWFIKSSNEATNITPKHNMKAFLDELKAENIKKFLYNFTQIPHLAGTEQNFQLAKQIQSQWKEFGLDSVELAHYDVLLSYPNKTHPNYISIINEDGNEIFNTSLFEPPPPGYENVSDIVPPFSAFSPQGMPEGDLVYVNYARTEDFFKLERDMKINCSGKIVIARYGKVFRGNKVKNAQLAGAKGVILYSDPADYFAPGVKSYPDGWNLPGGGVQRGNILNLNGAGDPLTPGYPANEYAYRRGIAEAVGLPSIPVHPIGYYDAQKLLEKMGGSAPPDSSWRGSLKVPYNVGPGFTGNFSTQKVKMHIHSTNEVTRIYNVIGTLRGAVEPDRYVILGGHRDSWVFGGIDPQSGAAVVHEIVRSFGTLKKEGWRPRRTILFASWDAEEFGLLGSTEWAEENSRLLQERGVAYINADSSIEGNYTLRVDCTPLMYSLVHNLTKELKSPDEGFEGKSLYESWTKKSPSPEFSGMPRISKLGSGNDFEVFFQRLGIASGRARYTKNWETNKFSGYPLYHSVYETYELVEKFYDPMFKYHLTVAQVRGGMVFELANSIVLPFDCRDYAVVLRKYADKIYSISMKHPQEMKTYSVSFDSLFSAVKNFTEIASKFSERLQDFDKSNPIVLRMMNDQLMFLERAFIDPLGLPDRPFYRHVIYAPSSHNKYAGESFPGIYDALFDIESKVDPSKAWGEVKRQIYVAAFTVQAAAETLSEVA
Assay: Saturation binding assay on CHO-K1-PSMA cells
Conditions: 2 h at 4 °C
Protocol: Saturation binding experiments were carried out with increasing concentrations of the radiolabeled peptides for 2 h at 4 °C. […] Cells were processed as previously published. […] The next day, the culture medium was replaced with 0.8 mL Ham's F 12 Nutrient Mix (1% FBS), and the cells were kept in the fridge for 30 min before the addition of the radioligand. […] The saturation assay was performed at 4 °C to avoid internalization. […] Total incubation volume per well: 1 mL. […] The obtained fractions and standard aliquots were measured in a γ-counter. […] Human GRPR reverse: [NT] Human β-ACTIN forward: [NT] Human β-ACTIN reverse: [NT] 3.3.4 Western blot Total protein was isolated from cell lines as previously described. PierceTM Coomassie Plus (Bradford) Protein Assay Kit (Thermo Scientific, Cat.Nr. 23236) was used for measuring protein concentrations and 30 μg (for PSMA) or 40 μg (for GRPR) protein per sample was used for SDS-PAGE and Western blot as previously described. PSMA (CST, D4S1F) Rabbit, GRPR (Alomone labs, Cat.Nr. ABR-002) Rabbit, α-Tubulin (Proteintech, Cat.Nr. 66031-1-Ig) Mouse and β-Actin (Proteintech, Cat.Nr. 66009-1-Ig) Mouse antibodies were utilized for detection of protein expression. Secondary antibodies used, included goat anti -rabbit IgG HRP conjugate (JD111036047) and rabbit anti -mouse IgG HRP conjugate (JD315035008). […] (Figure 6B, Table 1, main manuscript). […] 21

**Q.** Which Kd does the source give for `O=C(O)CC[C@H](NC(=O)N[C@@H](CCCCNC(=O)CCCCCCC(=O)NCCCC[C@@H](NC(=O)[C@@H](Cc1ccc2ccccc2c1)NC(=O)[C@@H](Cc1ccc(O)cc1)NC(=O)[C@@H](CO)NC(=O)[C@@H](CO)NC(=O)[C@@H](CO)NC(=O)CS)C(=O)O)C(=O)O)C(=O)O` [[^99mTc]Tc-PSMA-I&S, metal not drawn] (Mercaptoacetyl-[dS][dS][dS][dY][d2Nal][dK](X1)-OH) here?
**A.** 3.84 ± 0.44 nM
